Results on 23 molecules are retold here after patent US12534429B2, “Heterodimers of glutamic acid” (Molecular Insight Pharmaceuticals, Inc., priority 2006, dated 2026).

One series deals with T1, PSMA on LNCaP cells (Homo sapiens, UniProt Q04609).
T1 construct: LNCaP human prostate cancer cells were obtained from American Type Culture Collection; host or cells: LNCaP human prostate cancer cells
As to the kind of experiment: In vitro cell binding: competition with I-131 DCIT for binding to PSMA on LNCaP cells. Here is the method: In vitro cold screening assays verses I-131 DCIT. LNCaP and PC3 human prostate cancer cells were obtained from American Type Culture Collection, Rockville, MD LNCaP cells were maintained in RPMI-1640 medium supplemented with 10% fetal bovine serum (FBS). PC3 cells were grown in F12K medium supplemented with 10% FBS. Binding of the radiolabeled compound and competition with cold derivatives to LNCaP and PC-3 cells was performed according to the methods of Tang et al. (Tang, H.; Brown, M.; Ye, Y.; Huang, G.; Zhang, Y.; Wang, Y.; Zhai, H.; Chen, X.; Shen, T. Y.; Tenniswood, M., Prostate targeting ligands based on N-acetylated alpha-linked acidic dipeptidase, Biochem. Biophys. Res. Commun. 2003, 307, 8-14) with appropriate modifications. Cells were plated in 12-well plates at approximately 4×10^5 cells/well and incubated for 48 hours in a humidified incubator at 37° C./5% carbon dioxide prior to addition of compound. Each unique SAAC-urea-Glu conjugate was prepared and diluted in serum-free cell culture medium containing 0.5% bovine serum albumin (BSA) in combination with 3 nM I-131 DCIT (known inhibitor). Total binding was determined by incubating I-131 DCIT without test compound. Plates were incubated at room temperature for 1 hour. Cells were removed from the plates by gently pipeting and transferred to eppendorff tubes. Samples were microcentrifuged for 15 seconds at 10K×g. The medium was aspirated and the pellet was washed twice by dispersal in fresh assay medium followed by microcentrifugation. Cell binding of I-131 DCIT was determined by counting the cell pellet in an automated gamma counter. […] The control compounds are depicted below.
The ability of non-radioactive analogs to compete with ^131I-DCIT for binding to PSMA was tested in the PSMA positive human prostate cancer cell line, LNCaP cells. LNCaP cells (300,000 cells/well) were incubated for 1 hour with 3 nM [^131I]-DCIT in the presence of 1-10,000 nM MIP-1072 in RPMI-1640 medium supplemented with 0.5% bovine serum albumin, then washed and counted in a gamma counter. All documents cited in this specification including patent applications are incorporated by reference in their entirety.

A short description of series [1]: Stability of iodine-131 labeled compounds in solution (HPLC). It is filed as physicochemical. The method, then: FIG. 4A-4D are radio-HPLC chromatograms of I-131 MIP 1072 purified; at 3 days in A) DMSO. B) 3% genstisate-6% Ascorbate/Ascorbic acid, C) PBS, pH=7.2, D) 10% Ethanol in Saline at 37° C.
The stability of the radiolabeled compound in solution was determined as a function of time. Specifically, after radiolabeling and isolation, the product was stored at room temperature for 48 h after which HPLC analysis was performed to check for degree of label retention, as well as potential product degradation. The reformation of NaI and the presence of the reduced iodates was analyzed.
The stability of the radiolabeled compound in solution was determined as a function of time. Specifically, after radiolabeling and isolation, the product was stored at 37° C. for 3 days after which HPLC analysis was performed to check for degree of label retention, as well as potential product degradation. The reformation of NaI and the presence of the reduced iodates was analyzed.

A further series deals with PSMA (LnCap cells) (Homo sapiens, UniProt Q04609). As to the kind of experiment: Scatchard analysis in PSMA cellular binding assay (nonradiolabeled DCIT with I-131 DCIT). The method, then:
FIG. 6 is Scatchard Analysis in PSMA Cellular Binding Assay with cold 2-{3-[1-Carboxy-2-(4-hydroxy-phenyl)-ethyl]-ureido}-pentanedioic acid (DCT).
(§1) (ii) In vitro dose screening. […] Binding constants were determined by incubating LnCap cells with various amounts of nonradiolabeled DCIT in the presence of a constant amount of I-131 DCIT and dividing by the specific activity of each solution to determine the number of fmoles compound bound (FIG. 6).

The subject of another series is LnCap cells. Description: Direct binding of radiolabeled DCIT to PSMA-positive LnCap cells. Set-up: species or system human. Conditions: counts displaceable by nonradiolabeled compound or PMPA. Here is the method:
(§2) The histograms show the mean f SEM, each experiment was performed in duplicate.
(§3) In vitro cold screening assays verses I-131 DCIT. LNCaP and PC3 human prostate cancer cells were obtained from American Type Culture Collection, Rockville, MD LNCaP cells were maintained in RPMI-1640 medium supplemented with 10% fetal bovine serum (FBS). PC3 cells were grown in F12K medium supplemented with 10% FBS. Binding of the radiolabeled compound and competition with cold derivatives to LNCaP and PC-3 cells was performed according to the methods of Tang et al. (Tang, H.; Brown, M.; Ye, Y.; Huang, G.; Zhang, Y.; Wang, Y.; Zhai, H.; Chen, X.; Shen, T. Y.; Tenniswood, M., Prostate targeting ligands based on N-acetylated alpha-linked acidic dipeptidase, Biochem. Biophys. Res. Commun. 2003, 307, 8-14) with appropriate modifications. […] Total binding was determined by incubating I-131 DCIT without test compound. […] Cell binding of I-131 DCIT was determined by counting the cell pellet in an automated gamma counter. […]
as §1

A further series concerns PC3 cells. Description: Direct binding of radiolabeled DCIT to PSMA-negative PC3 cells. Also noted: species or system human. Here is the method:
as §2, §3, §1

The mark [2] stands for this setting: LNCaP cells, 3 nM I-131 DCIT, 1 hour, read-out: IC50 (nM), in vitro cell binding data.
The mark [3] stands for this setting: LnCap cells, dose curves, read-out: IC50 values versus I-131 DCIT.
Where [4] appears, read: LnCap cells, dose curves, read-out: IC-50 versus I-131 DCIT.

Read-outs that look alike come from different tables or passages of the source.

T1 sequence (Q04609 whole entry): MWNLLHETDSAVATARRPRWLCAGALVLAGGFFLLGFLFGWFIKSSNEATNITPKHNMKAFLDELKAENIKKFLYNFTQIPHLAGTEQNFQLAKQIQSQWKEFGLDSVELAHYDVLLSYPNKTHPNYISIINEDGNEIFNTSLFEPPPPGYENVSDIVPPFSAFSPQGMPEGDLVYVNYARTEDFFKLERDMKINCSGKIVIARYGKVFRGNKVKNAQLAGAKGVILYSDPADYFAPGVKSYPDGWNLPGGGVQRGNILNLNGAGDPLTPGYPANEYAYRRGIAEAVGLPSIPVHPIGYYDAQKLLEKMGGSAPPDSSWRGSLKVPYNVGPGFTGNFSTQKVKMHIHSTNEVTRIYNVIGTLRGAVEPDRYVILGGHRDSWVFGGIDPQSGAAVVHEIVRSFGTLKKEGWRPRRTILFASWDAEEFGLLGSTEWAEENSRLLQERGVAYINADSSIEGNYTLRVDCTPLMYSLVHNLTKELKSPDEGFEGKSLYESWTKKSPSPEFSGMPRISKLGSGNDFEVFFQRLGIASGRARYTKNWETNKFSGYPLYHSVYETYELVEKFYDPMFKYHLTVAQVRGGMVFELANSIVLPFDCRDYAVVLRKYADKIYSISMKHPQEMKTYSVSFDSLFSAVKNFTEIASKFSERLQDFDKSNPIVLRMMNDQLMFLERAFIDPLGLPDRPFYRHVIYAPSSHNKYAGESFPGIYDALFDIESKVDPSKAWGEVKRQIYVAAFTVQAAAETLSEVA
PSMA (LnCap cells), sequence (Q04609 whole entry): as above

In the case of `O=C(O)CC[C@H](NC(=O)N[C@@H](CCCCNCc1cccc(Cl)c1)C(=O)O)C(=O)O` [MIP 1131, (S, S)-2-{3-[1-Carboxy-5-(3-chloro-benzylamino)-pentyl]-ureido}-pentanedioic], at PSMA on LNCaP cells (setting [2]), the IC50 is 277 nM.
As to `O=C(O)CC[C@H](NC(=O)N[C@@H](CCCCNC(=O)NCc1cccc(I)c1)C(=O)O)C(=O)O` [MIP-1101, 2-(3-{1-Carboxy-5-[3-(3-iodo-benzyl)-ureido]-pentyl}-ureido)-pentanedioic acid], at PSMA on LNCaP cells (setting [2]), the IC50 turned out to be 10 nM.
As to `O=C(O)CC[C@H](NC(=O)N[C@@H](CCCCNCc1ccc([131I])cc1)C(=O)O)C(=O)O` [I-131 1072], the “stability by radio-HPLC” value in series [1] (3 days at 37° C. in DMSO, gentisate/ascorbate, PBS pH 7.2, 10% ethanol in saline) is listed as “remained stable”. In series [1] (out to 3 days at room temperature in DMSO, 10% ethanol/saline, PBS pH 7.2, 6% ascorbate/3% gentisic acid), the “labeling stability (degradation)” value was “no significant degradation”.
Turning to `O=C(O)CC[C@H](NC(=O)NC(CCCCNCc1ccccc1)C(=O)O)C(=O)O` (stereo in doubt) [MIP-1106, (S)-2-(3-((R)-5-(benzylamino)-1-carboxypentyl)ureido)pentanedioic acid], at PSMA on LNCaP cells (setting [2]), the IC50 came out at 2960 nM.
`O=C(O)CC[C@H](NC(=O)N(Cc1ccccn1)Cc1ccccn1)C(=O)O` [MIP 1025, (S)-2-(3,3-Bis-pyridin-2-ylmethyl-ureido)-pentanedioic acid]: the “competition with I-131 DCIT for binding to LnCap cells” value (from here on “competition with I-131 DCIT”) at PSMA on LNCaP cells (screen at 2 uM test compound) is “did not compete”.
`O=C(O)CC[C@H](NC(=O)N[C@@H](CCCCNCc1ccc(Cl)cc1)C(=O)O)C(=O)O` [MIP 1135, (S, S)-2-{3-[1-Carboxy-5-(4-chloro-benzylamino)-pentyl]-ureido}-pentanedioic]: at PSMA on LNCaP cells (setting [2]), the IC50 amounted to 2 nM.
For the molecule `O=C(O)CC[C@H](NC(=O)N[C@@H](CCCCNS(=O)(=O)c1ccc(I)cc1)C(=O)O)C(=O)O` [MIP 1097, 2-{3-[1-carboxy-5-(4-iodo-benzenesulfonylamino)-pentyl]-ureido}-pentanedioic acid], on PSMA on LNCaP cells (setting [3]), the IC50 was below 50 nM.
Take `NCCCC[C@H](NC(=O)N[C@@H](CCC(=O)O)C(=O)O)C(=O)O` [MIP 1033, (S, S)-2-[3-(5-Amino-1-carboxy-pentyl)-ureido]-pentanedioic acid]: the IC50 on PSMA on LNCaP cells (setting [2]) amounted to 498 nM; at PSMA on LNCaP cells (setting [4]) it was 497 nM. Besides, on PSMA on LNCaP cells (screen at 2 uM test compound), the “competition with I-131 DCIT” value was “competed”.
On to `O=C(O)CC[C@H](NC(=O)N[C@@H](CCCCNC(=O)Nc1ccc(I)cc1)C(=O)O)C(=O)O` [MIP 1095, 2-(3-{1-Carboxy-5-[3-(4-iodo-phenyl)-ureido]-pentyl}-ureido)-pentanedioic acid], for which the IC50 was 10 nM at PSMA on LNCaP cells (setting [2]) and below 50 nM on PSMA on LNCaP cells (setting [3]).
Regarding “[Re(CO)3{(35R,39S)-29,37-dioxo-1-([…]yridine-2-yl)-2-([…]yridine-2-ylmethyl)-5,8,11,14,17,20,23,26-octaoxa-2,30,36,38-tetraazahentetracontane-35,39,41-tricarboxylic acid}][Br] [MIP-1132]”, at PSMA on LNCaP cells (setting [2]), the IC50 worked out at 1750 nM.
As for `O=C(O)CC[C@H](NC(=O)N[C@@H](CCCCNCc1ccccc1Cl)C(=O)O)C(=O)O` [MIP-1137, (S, S)-2-{3-[1-Carboxy-5-(2-chloro-benzylamino)-pentyl]-ureido}-pentanedioic], the IC50 at PSMA on LNCaP cells (setting [2]) came to 245 nM.
The same measure, in the same setting: as for “[Re(CO)3{(19R,23S)-13,21-dioxo-2-([…]yridine-2-ylmethyl)-2,14,20,22-tetraazapentacosane-1,19,23,25-tetracarboxylic acid}] [MIP-1109]”, the figure is 696 nM.
“[Re(CO)3(2-{3-[5-(Bis-pyridin-2-ylmethyl-amino)-1-carboxy-pentyl]-ureido}-pentanedioic acid)][Br] [MIP 1029]”: the “competition with I-131 DCIT” value at PSMA on LNCaP cells is “did not compete”.
As to `O=C(O)CC[C@H](NC(=O)N[C@@H](CCCCNC(=O)Nc1ccc(Cl)cc1)C(=O)O)C(=O)O` [MIP 1110, 2-(3-{1-Carboxy-5-[3-(4-chloro-phenyl)-ureido]-pentyl}-ureido)-pentanedioic acid], the IC50 at PSMA on LNCaP cells (setting [2]) was determined as 4 nM.
As to `O=C(O)CC[C@H](NC(=O)N[C@@H](CCCCNCc1cccc2ccccc12)C(=O)O)C(=O)O` [MIP-1108, (S)-2-(3-((R)-1-carboxy-5-([…]yridine[…]ne-1-ylmethylamino)pentyl)ureido)pentanedioic acid], the IC50 on PSMA on LNCaP cells (setting [2]) was 154 nM.
Take `O=C(O)CC[C@H](NC(=O)N[C@@H](CCCCNC(=O)CCCCCCCCCCN(Cc1ccc(I)cc1)Cc1ccc(I)cc1)C(=O)O)C(=O)O` [MIP-1130, (19S,23S)-2-(4-iodobenzyl)-1-(4-iodophenyl)-13,21-dioxo-2,14,20,22-tetraazapentacosane-19,23,25-tricarboxylic acid]: at PSMA on LNCaP cells (setting [2]), the IC50 came out at 300 nM.
As for “[Re(CO)3{(17R,21S)-11,19-dioxo-1-([…]yridine-2-yl)-2-([…]yridine-2-ylmethyl)-5,8-dioxa-2,12,18,20-tetraazatricosane-17,21,23-tricarboxylic acid}][Br] [MIP-1133]”, the IC50 on PSMA on LNCaP cells (setting [2]) stood at 227 nM.
On PSMA (LnCap cells), `O=C(O)CC[C@H](NC(=O)N[C@@H](Cc1ccc(O)c(I)c1)C(=O)O)C(=O)O` [DCIT, N—[N—[(S)-1,3-dicarboxypropyl]carbamoyl]-S-3-iodo-L-tyrosine] yielded a Bmax of 254 fmol and a Kd of 264 nM.
Consider `O=C(O)CC[C@H](NC(=O)N[C@@H](CCCCNC(=O)Nc1ccccc1)C(=O)O)C(=O)O` (stereo in doubt) [MIP 1111, 2-(3-{1-Carboxy-5-[3-(phenyl)-ureido]-pentyl}-ureido)-pentanedioic acid], for which, on PSMA on LNCaP cells (setting [2]), the IC50 is 12 nM.
With `O=C(O)CC[C@H](NC(=O)N[C@@H](Cc1ccc(O)c([123I])c1)C(=O)O)C(=O)O` [I-123 DCIT], in the series with LnCap cells, the “specific binding to LnCap cells” value is on record as “bound specifically”. The “specific binding to PC3 cells” value in the series with PC3 cells is recorded as “not PC3 cells”.
On to `O=C(O)CC[C@H](NC(=O)N[C@@H](CCN(Cc1ccccn1)Cc1ccccn1)C(=O)O)C(=O)O` [MIP 1028, (S, S)-2-{3-[3-(Bis-pyridin-2-ylmethyl-amino)-1-carboxy-propyl]-ureido}-pentanedioic acid], for which the “competition with I-131 DCIT” value at PSMA on LNCaP cells (screen at 2 uM test compound) is listed as “did not compete”.
For `O=C(O)CC[C@H](NC(=O)N[C@@H](CCCCN(Cc1ccccn1)Cc1ccccn1)C(=O)O)C(=O)O` [MIP 1008, (S, S)-2-{3-[5-(Bis-pyridin-2-ylmethyl-amino)-1-carboxy-pentyl]-ureido}-pentanedioic acid], at PSMA on LNCaP cells (setting [4]), the IC50 turned out to be 98 nM. Also, the “competition with I-131 DCIT” value on PSMA on LNCaP cells (screen at 2 uM test compound) is “competed”.
With `O=C(O)CC[C@H](NC(=O)N[C@@H](Cc1ccc(O)c(I)c1)C(=O)O)C(=O)O` [I-131 DCIT, N—[N—[(S)-1,3-dicarboxypropyl]carbamoyl]-S-3-iodo-L-tyrosine], in the series with LnCap cells, the “specific binding to LnCap cells” value is listed as “bound specifically”. Also, in series [1] (out to 2 days at room temperature), the “labeling stability (degradation)” value was “no significant degradation”. Besides, the “specific binding to PC3 cells” value with PC3 cells is “not PC3 cells”.
